# Reference: patent US20100210557A1, “USE OF RFRP, ALONE OR IN COMBINATION WITH NEUROKININ-B, AS A THERAPEUTIC AGENT” (priority 2007, published 2010)
# No end group written: not given here.
# What was measured:
# HCMV strain AD169 = assay: HCMV plaque formation assay in MRC-5 cells; conditions: for inhibition of HCMV plaque formation as compared to the virus control: 10 micrograms per ml, 7-10 days
# [1] = test system: spleen cells of Ovalbumin-immunized Balb/c mice; assay: Th1/Th2 cytokine profiling assay; type: cell-based, mouse; conditions: 10 micrograms per ml; Ovalbumin restimulation 10 micrograms/ml; 72 hours
# Description: The Balb/c mice (originated in 1923, it is a popular strain and is used in many different research disciplines. […] On day 50, spleens of the mice were harvested (3 weeks after last boost with Ovalbumin). […] Thereafter, additional Ovalbumin was added to the cells at 10 micrograms/ml for in vitro restimulation of the cells. 72 hours later, cell supernatants were harvested and assayed using the Becton Dickinson Mouse […] Cytokine CBA Kit. This kit can be used to measure Interleukin-2 (IL-2), Interleukin-4 (IL-4), Interleukin-5 (IL-5), Interferon-γ (IFN-γ), and Tumor Necrosis Factor-α (TNF-α) protein levels in a single sample. The kit performance has been optimized for analysis of physiologically relevant concentrations (pg/ml levels) of specific cytokine proteins in tissue culture supernatants and serum samples.
# [2] = test system: hepatitis B virus (HBV) ayw strain; assay: HBV assay in HepG2-2.2.15 cells (secreted HBV DNA by TaqMan PCR); type: cell-based; conditions: 10 micrograms per ml; six days; HBV DNA in supernatant
# Text: HepG2-2.2.15 is a stable cell line containing the hepatitis B virus (HBV) ayw strain genome (ATCC Cat. No. CRL-11997). Antiviral compounds blocking any late step of viral replication such as transcription, translation, pregenome encapsidation, reverse transcription, particle assembly and release can be identified and characterized using this cell line. In this assay, an active compound will reduce the production of secreted HBV from cells, measured by utilizing real time quantitative PCR (TaqMan) assay to directly and accurately measure HBV DNA copies.
# HepG2-2.2.15 cells were plated in 96-well microtiter plates. After 16-24 hours the confluent monolayer of HepG2-2.2.15 cells was washed and the medium was replaced with complete medium containing test peptides—10 micrograms per ml—in duplicate. […] Six days following the initial administration of the peptides, the cell culture supernatants was collected, treated with pronase and DNAse and then used in a real-time quantitative TaqMan PCR assay. The PCR-amplified HBV DNA was detected in real-time by monitoring increases in fluorescence signals that result from the exonucleolytic degradation of a quenched fluorescence probe molecule that hybridizes to the amplified HBV DNA. […] Antiviral activity was calculated from the reduction in HBV DNA levels (% virus control). […]
# [3] = test system: LPS-induced TNF-alpha production in human macrophages; assay: TNF alpha production assay (ELISA); type: cell-based; conditions: 10 micrograms per ml; LPS 200 ng/ml; overnight
# Description: Human Peripheral Blood Mononuclear Cells (PBMC) were obtained from normal human donors. The macrophages were prepared by adherence of PBMC to the plastic wells of the plates. […] Not stimulated macrophages served as negative background control. After overnight incubation, supernatants from the control and LPS-stimulated cultures were harvested and assayed for TNF alpha production employing a TNF alpha specific ELISA.
Compound,antiviral activity of positive control compound (HCMV) (HCMV strain AD169; positive control),inhibition of HCMV plaque formation as compared to the virus control (HCMV strain AD169),IFNγ spleen cells; TH1 response (% of control) [1],IL-2 spleen cells (% of control) [1],IL-4 spleen cells; TH2 response (% of control) [1],IL-5 spleen cells; TH2 response (% of control) [1],TNF-a spleen cells; TH1 response (% of control) [1],inhibition of HBV replication as compared to the virus control infection [2] [%],induction of the LPS-induced TNF-alpha production in human macrophages [3] [%]
"Nc1nc(O)c2ncn(COC(CO)CO)c2n1 [Ganciclovir, reference compound]",expected levels of antiviral activity,–,–,–,–,–,–,–,–
Asp-Met-His-Asp-Phe-Phe-Val-Gly-Leu-Met-NH2 (DMHDFFVGLM-NH2) [Peptide 2],–,did not inhibit,126.8 % of control,198.0 % of control,103.5 % of control,99.2 % of control,151.0 % of control,78.5,15.9
Met-Pro-His-Ser-Phe-Ala-Asn-Leu-Pro-Leu-Arg-Phe-NH2 (MPHSFANLPLRF-NH2) [Peptide 1],–,did not inhibit,57.5 % of control,239.7 % of control,168.7 % of control,99.2 % of control,106.3 % of control,77.8,21.7
